{"source": "ChEMBL document CHEMBL4507268", "about": "(2021)", "key": {"[1]": {"system": "Receptor-type tyrosine-protein kinase FLT3 (Homo sapiens), P36888 [R834Q]", "conditions": "Compound concentration 1000.0 nM"}, "[2]": {"molecular_target": "Maternal embryonic leucine zipper kinase (Homo sapiens) (UniProt Q14680)", "sequence (Q14680 whole entry, looked up)": "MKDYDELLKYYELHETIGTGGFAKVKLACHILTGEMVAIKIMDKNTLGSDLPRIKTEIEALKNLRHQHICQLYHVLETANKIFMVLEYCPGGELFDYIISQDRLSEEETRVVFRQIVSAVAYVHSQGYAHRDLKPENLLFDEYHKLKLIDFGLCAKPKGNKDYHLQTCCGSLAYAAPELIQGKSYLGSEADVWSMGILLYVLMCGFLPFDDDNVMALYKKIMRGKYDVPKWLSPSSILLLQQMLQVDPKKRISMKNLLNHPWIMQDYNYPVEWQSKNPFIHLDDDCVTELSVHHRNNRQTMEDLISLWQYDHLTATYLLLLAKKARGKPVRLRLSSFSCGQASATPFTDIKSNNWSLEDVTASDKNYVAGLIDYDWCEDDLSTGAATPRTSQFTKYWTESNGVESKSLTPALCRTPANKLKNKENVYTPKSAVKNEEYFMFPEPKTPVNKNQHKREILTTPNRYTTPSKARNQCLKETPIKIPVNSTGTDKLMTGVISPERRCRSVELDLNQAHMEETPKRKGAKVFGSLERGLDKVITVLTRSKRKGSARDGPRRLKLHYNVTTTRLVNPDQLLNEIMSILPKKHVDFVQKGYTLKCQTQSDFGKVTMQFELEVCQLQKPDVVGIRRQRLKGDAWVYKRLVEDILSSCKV", "conditions": "Compound concentration 1000.0 nM"}, "[3]": {"molecular_target": "T1, cGMP-dependent protein kinase 2 (Homo sapiens) (UniProt Q13237)", "T1 sequence (whole entry)": "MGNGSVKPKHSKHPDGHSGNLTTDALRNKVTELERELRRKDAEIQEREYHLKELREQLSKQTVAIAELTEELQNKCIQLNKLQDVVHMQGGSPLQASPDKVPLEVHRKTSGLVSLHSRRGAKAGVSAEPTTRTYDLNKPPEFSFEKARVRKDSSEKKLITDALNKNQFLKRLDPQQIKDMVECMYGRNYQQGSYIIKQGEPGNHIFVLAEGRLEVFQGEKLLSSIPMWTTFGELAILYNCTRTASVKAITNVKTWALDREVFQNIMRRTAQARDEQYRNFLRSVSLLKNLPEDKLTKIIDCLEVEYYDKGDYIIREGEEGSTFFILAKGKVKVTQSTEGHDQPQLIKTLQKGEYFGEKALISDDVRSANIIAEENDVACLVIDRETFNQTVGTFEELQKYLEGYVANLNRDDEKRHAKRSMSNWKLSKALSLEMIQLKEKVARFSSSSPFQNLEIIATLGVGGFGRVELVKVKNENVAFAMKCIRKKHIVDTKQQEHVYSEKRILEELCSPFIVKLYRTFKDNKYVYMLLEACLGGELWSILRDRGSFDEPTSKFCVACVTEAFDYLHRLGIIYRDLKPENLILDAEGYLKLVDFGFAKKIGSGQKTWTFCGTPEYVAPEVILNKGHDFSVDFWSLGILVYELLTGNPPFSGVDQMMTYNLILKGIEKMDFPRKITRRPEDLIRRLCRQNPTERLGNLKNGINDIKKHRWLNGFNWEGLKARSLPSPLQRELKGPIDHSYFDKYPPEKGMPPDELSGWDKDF", "conditions": "Compound concentration 1000.0 nM"}, "[4]": {"molecular_target": "Sigma non-opioid intracellular receptor 1 (Homo sapiens, UniProt Q99720)", "conditions": "Compound concentration 10.0 uM"}, "[5]": {"molecular_target": "Dual specificity tyrosine-phosphorylation-regulated kinase 1B (Homo sapiens) (UniProt Q9Y463)", "sequence (Q9Y463 whole entry, looked up)": "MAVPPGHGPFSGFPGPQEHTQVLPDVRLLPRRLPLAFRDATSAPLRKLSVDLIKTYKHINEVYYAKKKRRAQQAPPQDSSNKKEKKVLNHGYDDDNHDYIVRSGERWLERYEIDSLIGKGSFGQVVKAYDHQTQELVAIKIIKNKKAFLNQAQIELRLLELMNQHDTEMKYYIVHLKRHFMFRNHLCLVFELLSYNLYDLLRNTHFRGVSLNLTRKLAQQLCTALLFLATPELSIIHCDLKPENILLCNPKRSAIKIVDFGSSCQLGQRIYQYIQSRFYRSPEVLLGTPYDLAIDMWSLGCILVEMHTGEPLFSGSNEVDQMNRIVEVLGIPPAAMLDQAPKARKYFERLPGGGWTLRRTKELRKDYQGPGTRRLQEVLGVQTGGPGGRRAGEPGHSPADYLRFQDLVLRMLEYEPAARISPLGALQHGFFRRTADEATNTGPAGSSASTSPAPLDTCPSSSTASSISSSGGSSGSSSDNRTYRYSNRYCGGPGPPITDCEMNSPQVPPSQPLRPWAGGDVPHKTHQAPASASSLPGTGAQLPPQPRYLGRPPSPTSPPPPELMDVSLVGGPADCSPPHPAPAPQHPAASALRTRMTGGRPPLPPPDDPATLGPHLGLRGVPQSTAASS", "conditions": "Compound concentration 1000.0 nM"}, "[6]": {"molecular_target": "Ribosomal protein S6 kinase beta-1 (Homo sapiens) (UniProt P23443)", "sequence (P23443 whole entry, looked up)": "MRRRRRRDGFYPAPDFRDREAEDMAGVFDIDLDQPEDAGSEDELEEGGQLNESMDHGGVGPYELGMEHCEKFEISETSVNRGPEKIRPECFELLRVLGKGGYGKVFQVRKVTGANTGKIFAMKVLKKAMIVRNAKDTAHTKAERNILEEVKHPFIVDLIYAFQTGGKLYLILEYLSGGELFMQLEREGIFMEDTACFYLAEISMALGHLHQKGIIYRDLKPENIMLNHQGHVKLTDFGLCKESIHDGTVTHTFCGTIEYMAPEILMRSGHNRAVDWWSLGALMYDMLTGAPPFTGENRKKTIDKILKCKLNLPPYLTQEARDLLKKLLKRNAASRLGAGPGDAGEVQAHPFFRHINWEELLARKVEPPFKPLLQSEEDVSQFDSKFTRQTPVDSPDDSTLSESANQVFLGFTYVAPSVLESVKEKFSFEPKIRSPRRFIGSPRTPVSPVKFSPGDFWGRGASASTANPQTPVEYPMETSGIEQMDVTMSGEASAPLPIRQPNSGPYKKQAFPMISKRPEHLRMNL", "conditions": "Compound concentration 1000.0 nM"}, "[7]": {"molecular_target": "Serine/threonine-protein kinase 32C (Homo sapiens) (UniProt Q86UX6)", "sequence (Q86UX6 whole entry)": "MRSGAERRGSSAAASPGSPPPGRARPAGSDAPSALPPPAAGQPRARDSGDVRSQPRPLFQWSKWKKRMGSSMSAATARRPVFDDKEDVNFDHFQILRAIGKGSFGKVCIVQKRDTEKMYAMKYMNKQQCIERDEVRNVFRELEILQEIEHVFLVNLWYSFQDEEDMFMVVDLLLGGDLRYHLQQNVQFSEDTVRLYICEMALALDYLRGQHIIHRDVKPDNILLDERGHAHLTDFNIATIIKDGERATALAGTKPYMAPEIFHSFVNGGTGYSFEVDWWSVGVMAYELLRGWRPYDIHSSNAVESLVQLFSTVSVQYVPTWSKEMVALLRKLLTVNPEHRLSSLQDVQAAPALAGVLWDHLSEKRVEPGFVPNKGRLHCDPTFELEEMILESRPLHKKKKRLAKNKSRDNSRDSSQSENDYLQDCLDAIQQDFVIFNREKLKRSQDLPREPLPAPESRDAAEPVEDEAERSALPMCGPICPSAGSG", "conditions": "Compound concentration 1000.0 nM"}, "[8]": {"molecular_target": "Beta-1 adrenergic receptor (Homo sapiens) (UniProt P08588)", "sequence (P08588 whole entry, looked up)": "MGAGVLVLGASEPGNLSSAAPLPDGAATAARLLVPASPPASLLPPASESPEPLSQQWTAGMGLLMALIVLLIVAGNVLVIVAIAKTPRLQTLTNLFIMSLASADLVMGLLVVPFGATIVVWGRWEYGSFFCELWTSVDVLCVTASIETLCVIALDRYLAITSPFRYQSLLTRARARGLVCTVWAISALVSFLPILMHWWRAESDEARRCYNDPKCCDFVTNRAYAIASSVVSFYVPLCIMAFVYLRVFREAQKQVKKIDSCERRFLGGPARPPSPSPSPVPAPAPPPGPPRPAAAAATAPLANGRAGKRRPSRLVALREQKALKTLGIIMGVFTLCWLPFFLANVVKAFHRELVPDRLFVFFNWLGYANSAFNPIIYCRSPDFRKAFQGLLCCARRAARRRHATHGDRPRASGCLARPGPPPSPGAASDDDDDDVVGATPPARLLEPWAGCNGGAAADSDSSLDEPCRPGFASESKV", "conditions": "Compound concentration 10.0 uM"}, "[9]": {"molecular_target": "T2, Serine/threonine-protein kinase TBK1 (Homo sapiens) (UniProt Q9UHD2)", "T2 sequence (whole entry)": "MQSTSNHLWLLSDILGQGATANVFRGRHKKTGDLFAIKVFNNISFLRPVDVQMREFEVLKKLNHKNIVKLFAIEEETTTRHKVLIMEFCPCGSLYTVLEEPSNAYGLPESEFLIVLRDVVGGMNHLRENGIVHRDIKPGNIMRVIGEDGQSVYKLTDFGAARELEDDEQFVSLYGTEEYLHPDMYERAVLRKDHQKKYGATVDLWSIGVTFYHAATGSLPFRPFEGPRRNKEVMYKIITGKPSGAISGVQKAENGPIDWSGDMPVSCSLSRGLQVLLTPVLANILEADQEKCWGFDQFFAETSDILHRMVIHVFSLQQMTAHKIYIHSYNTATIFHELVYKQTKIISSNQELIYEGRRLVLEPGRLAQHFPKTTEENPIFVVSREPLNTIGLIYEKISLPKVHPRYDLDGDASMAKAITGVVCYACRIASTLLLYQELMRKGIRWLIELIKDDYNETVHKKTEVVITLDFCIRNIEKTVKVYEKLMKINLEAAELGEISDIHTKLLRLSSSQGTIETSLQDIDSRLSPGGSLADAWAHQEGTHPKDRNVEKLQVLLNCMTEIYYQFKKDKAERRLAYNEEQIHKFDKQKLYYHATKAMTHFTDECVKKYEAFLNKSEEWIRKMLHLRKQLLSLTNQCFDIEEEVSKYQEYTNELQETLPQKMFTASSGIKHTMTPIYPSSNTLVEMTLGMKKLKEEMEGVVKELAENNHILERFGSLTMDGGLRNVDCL", "conditions": "Compound concentration 1000.0 nM"}, "[10]": {"molecular_target": "Serine/threonine-protein kinase/endoribonuclease IRE1 (Homo sapiens) (UniProt O75460)", "conditions": "Compound concentration 1000.0 nM"}, "[11]": {"molecular_target": "T3, Rhodopsin kinase GRK7 (Homo sapiens) (UniProt Q8WTQ7)", "T3 sequence (whole entry)": "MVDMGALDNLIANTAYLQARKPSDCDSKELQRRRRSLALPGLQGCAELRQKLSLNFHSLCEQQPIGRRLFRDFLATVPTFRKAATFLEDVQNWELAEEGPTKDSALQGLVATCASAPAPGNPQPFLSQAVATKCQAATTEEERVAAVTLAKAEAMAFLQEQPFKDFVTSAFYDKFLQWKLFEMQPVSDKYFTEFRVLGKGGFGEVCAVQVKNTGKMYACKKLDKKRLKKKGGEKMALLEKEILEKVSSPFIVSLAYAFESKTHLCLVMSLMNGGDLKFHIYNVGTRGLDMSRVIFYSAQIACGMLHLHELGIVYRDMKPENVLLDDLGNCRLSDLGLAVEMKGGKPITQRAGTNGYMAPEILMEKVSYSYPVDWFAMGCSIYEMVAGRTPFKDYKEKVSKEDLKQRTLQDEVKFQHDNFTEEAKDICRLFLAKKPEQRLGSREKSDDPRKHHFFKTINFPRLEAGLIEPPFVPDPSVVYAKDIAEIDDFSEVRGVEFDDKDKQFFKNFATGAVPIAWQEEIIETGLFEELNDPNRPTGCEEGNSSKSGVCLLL", "conditions": "Compound concentration 1000.0 nM"}, "[12]": {"molecular_target": "Dual specificity mitogen-activated protein kinase kinase 4 (Homo sapiens) (UniProt P45985)", "conditions": "Compound concentration 1000.0 nM"}, "[13]": {"molecular_target": "Serine/threonine-protein kinase 16 (Homo sapiens) (UniProt O75716)", "sequence (O75716 whole entry)": "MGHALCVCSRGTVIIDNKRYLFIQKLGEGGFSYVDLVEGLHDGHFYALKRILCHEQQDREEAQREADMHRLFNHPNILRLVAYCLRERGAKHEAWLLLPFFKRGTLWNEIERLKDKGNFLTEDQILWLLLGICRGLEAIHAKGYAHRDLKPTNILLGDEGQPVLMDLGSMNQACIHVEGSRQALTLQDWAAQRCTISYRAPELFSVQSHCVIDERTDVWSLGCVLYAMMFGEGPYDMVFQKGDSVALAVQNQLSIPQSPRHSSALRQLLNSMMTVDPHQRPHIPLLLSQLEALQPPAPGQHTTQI", "conditions": "Compound concentration 1000.0 nM"}, "[14]": {"molecular_target": "D(3) dopamine receptor (Homo sapiens) (UniProt P35462)", "conditions": "Compound concentration 10.0 uM"}, "[15]": {"molecular_target": "Ribosomal protein S6 kinase alpha-5 (Homo sapiens) (UniProt O75582)", "sequence (O75582 whole entry, looked up)": "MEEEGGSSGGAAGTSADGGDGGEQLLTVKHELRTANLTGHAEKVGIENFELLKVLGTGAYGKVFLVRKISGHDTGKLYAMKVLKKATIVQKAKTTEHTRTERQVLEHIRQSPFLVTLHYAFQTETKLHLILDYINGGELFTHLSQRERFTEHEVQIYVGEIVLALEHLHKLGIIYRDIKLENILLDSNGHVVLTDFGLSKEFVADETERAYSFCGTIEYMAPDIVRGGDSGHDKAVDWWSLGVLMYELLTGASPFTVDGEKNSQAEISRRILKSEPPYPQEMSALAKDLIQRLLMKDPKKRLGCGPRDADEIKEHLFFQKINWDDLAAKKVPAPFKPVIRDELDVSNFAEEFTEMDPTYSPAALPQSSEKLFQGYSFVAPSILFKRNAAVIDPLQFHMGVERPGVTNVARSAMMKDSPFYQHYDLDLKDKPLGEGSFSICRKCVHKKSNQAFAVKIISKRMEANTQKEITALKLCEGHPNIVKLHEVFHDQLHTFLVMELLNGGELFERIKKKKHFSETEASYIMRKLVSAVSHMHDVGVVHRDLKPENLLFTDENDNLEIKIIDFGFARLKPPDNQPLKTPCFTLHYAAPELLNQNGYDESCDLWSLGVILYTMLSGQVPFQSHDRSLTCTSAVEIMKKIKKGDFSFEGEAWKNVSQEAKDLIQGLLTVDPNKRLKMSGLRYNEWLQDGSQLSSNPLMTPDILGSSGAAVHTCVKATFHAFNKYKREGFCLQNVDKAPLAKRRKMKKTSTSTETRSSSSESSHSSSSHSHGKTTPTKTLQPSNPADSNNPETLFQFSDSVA", "conditions": "Compound concentration 1000.0 nM"}, "[16]": {"molecular_target": "Muscarinic acetylcholine receptor M1 (Homo sapiens) (UniProt P11229)", "sequence (P11229 whole entry)": "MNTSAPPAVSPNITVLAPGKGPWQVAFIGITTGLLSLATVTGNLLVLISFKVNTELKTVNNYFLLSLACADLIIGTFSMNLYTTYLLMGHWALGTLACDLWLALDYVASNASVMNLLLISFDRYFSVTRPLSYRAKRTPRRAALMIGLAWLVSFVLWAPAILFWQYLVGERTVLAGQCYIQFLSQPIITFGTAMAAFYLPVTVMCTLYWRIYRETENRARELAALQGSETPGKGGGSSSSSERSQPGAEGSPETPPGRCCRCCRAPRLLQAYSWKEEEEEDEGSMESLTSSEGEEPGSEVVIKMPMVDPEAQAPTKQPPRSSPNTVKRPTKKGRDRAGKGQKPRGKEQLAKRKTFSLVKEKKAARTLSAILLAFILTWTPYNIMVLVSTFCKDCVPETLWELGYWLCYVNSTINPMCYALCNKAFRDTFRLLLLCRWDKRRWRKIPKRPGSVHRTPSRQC", "conditions": "Compound concentration 10.0 uM"}, "[17]": {"molecular_target": "Protein-tyrosine kinase 6 (Homo sapiens) (UniProt Q13882)", "sequence (Q13882 whole entry, looked up)": "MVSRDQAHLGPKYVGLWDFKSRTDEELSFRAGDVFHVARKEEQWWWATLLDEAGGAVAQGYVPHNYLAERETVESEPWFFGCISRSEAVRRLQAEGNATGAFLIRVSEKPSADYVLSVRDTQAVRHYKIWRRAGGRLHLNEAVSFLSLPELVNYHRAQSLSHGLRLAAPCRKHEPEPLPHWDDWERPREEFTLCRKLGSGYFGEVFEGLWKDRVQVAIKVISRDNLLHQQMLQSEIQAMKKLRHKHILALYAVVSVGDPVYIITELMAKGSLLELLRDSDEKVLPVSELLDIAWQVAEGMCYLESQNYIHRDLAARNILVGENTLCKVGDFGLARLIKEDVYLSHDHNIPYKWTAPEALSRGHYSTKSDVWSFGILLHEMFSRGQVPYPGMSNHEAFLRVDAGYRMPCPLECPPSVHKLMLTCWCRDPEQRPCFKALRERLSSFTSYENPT", "conditions": "Compound concentration 1000.0 nM"}}}
{"smiles": "Cc1nc(C2CCN(C(=O)c3ccc(OC(F)(F)F)cc3N)CC2)c2ncc(N3CCN(C)CC3)cc2n1", "note": "[BAY-693]", "values": [{"measurement": "residual activity", "setting": "[1]", "value": 100, "unit": "%"}, {"measurement": "residual activity", "setting": "[2]", "value": 93, "unit": "%"}, {"measurement": "residual activity", "setting": "[3]", "value": 74, "unit": "%"}, {"measurement": "inhibition", "setting": "[4]", "value": 72.7, "unit": "%"}, {"measurement": "residual activity", "setting": "[5]", "value": 61, "unit": "%"}, {"measurement": "residual activity", "setting": "[6]", "value": 99, "unit": "%"}, {"measurement": "residual activity", "setting": "[7]", "value": 100, "unit": "%"}, {"measurement": "inhibition", "setting": "[8]", "value": 17.9, "unit": "%"}, {"measurement": "residual activity", "setting": "[9]", "value": 100, "unit": "%"}, {"measurement": "residual activity", "setting": "[10]", "value": 100, "unit": "%"}, {"measurement": "residual activity", "setting": "[11]", "value": 81, "unit": "%"}, {"measurement": "residual activity", "setting": "[12]", "value": 100, "unit": "%"}, {"measurement": "residual activity", "setting": "[13]", "value": 100, "unit": "%"}, {"measurement": "inhibition", "setting": "[14]", "value": -8.88, "unit": "%"}, {"measurement": "residual activity", "setting": "[15]", "value": 90, "unit": "%"}, {"measurement": "inhibition", "setting": "[16]", "value": 2.76, "unit": "%"}, {"measurement": "residual activity", "setting": "[17]", "value": 100, "unit": "%"}]}
{"smiles": "CN1CCN(c2cnc3c(C4CCN(C(=O)c5ccc(OC(F)(F)F)cc5N)CC4)ncnc3c2)CC1", "note": "[BAY-885]", "values": [{"measurement": "residual activity", "setting": "[1]", "value": 100, "unit": "%"}, {"measurement": "residual activity", "setting": "[2]", "value": 85, "unit": "%"}, {"measurement": "residual activity", "setting": "[3]", "value": 77, "unit": "%"}, {"measurement": "inhibition", "setting": "[4]", "value": 72.4, "unit": "%"}, {"measurement": "residual activity", "setting": "[5]", "value": 54, "unit": "%"}, {"measurement": "residual activity", "setting": "[6]", "value": 90, "unit": "%"}, {"measurement": "residual activity", "setting": "[7]", "value": 100, "unit": "%"}, {"measurement": "inhibition", "setting": "[8]", "value": 12.6, "unit": "%"}, {"measurement": "residual activity", "setting": "[9]", "value": 61, "unit": "%"}, {"measurement": "residual activity", "setting": "[10]", "value": 99, "unit": "%"}, {"measurement": "residual activity", "setting": "[11]", "value": 87, "unit": "%"}, {"measurement": "residual activity", "setting": "[12]", "value": 100, "unit": "%"}, {"measurement": "residual activity", "setting": "[13]", "value": 100, "unit": "%"}, {"measurement": "inhibition", "setting": "[14]", "value": 7.59, "unit": "%"}, {"measurement": "residual activity", "setting": "[15]", "value": 96, "unit": "%"}, {"measurement": "inhibition", "setting": "[16]", "value": 3.17, "unit": "%"}, {"measurement": "residual activity", "setting": "[17]", "value": 100, "unit": "%"}]}
